# Results published in patent US9000045B2, “CETP activity inhibitors” (Japan Tobacco Inc., priority 1997, dated 2015).
# Target: T1, CETP (Homo sapiens, UniProt P11597)
# T1 sequence (P11597 18-493): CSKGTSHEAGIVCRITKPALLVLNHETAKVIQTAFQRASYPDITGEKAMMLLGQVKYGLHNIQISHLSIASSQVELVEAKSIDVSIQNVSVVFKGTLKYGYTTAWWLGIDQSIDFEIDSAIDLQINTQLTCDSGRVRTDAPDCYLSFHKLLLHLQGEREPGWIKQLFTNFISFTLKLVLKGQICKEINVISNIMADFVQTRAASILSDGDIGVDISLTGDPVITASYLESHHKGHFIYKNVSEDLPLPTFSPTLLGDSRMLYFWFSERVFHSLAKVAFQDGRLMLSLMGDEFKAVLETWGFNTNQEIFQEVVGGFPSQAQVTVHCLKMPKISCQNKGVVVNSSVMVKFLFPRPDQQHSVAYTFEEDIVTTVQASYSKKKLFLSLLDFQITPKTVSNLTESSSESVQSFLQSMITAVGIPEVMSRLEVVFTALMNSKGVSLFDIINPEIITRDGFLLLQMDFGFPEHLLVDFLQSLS
# Test: In vitro CETP activity inhibitory effect in whole plasma
# Assay type: biochemical
# Design: Plasma containing [^3H]CE-HDL3 (600,000 dpm/ml) was prepared by adding donor lipoprotein obtained in the above (1) to plasma from healthy subjects; from tissue; host or cells: whole plasma of healthy subjects
# Details: plasma from healthy subjects containing [3H]CE-HDL3, incubated 4 hours at 37° C.; read-out: CETP activity inhibition in whole plasma IC50
# Procedure: The fraction thus obtained was dialyzed against a PBS solution [10 mM Na2HPO4/10 mM NaH2PO4/0.15 M NaCl/1 mM EDTA (pH 7.4)]. Then, tritium-labeled cholesterol (10 nM) (50.3 Ci/mM) was dissolved in 95% ethanol and added gradually to the above HDL3 fraction under stirring. The solution was incubated for 18 hours at 37° C. […] After incubation, KBr was added and specific gravity was adjusted to d=1.21 g/ml. […] A sample solution was prepared using a 1:1 solution of N-methylpyrrolidone and polyethyleneglycol 400 as a solvent. […] Based on the inhibition rate (%) of CETP activity, IC50 value of each sample was calculated.
row,SMILES,IC50 [µM]
1,"CC(C)(C)C(=O)Nc1ccccc1SSc1ccccc1NC(=O)C(C)(C)C [Example 1, bis-[2-(pivaloylamino)phenyl]disulfide]",20
2,CC(C)C(=O)Nc1ccccc1SSc1ccccc1NC(=O)C(C)C [Example 1-1],41
3,CCCCC(=O)Nc1ccccc1SSc1ccccc1NC(=O)CCCC [Example 1-2],25
4,O=C(Nc1ccccc1SSc1ccccc1NC(=O)C1CCCCC1)C1CCCCC1 [Example 1-6],22
5,O=C(Nc1ccccc1SSc1ccccc1NC(=O)c1ccncc1)c1ccncc1 [Example 1-7],24
6,CCCCC(=O)Nc1ccccc1SSc1ccccc1NC(=O)CCCC [Example 1-8],21
7,O=C(Nc1ccccc1SSc1ccccc1NC(=O)C12CC3CC(CC(C3)C1)C2)C12CC3CC(CC(C3)C1)C2 [Example 1-12],12
8,CC(C)(C)C1CCC(C(=O)Nc2ccccc2SSc2ccccc2NC(=O)C2CCC(C(C)(C)C)CC2)CC1 (stereo not shown) [Example 1-13],18
9,O=C(Nc1ccccc1SSc1ccccc1NC(=O)c1ccccc1)c1ccccc1 [Example 3],101
10,O=C(Nc1ccccc1SSc1ccccc1NC(=O)c1cccs1)c1cccs1 [Example 4],175
11,CCCC(CCC)C(=O)Nc1ccccc1SSc1ccccc1NC(=O)C(CCC)CCC [Example 5],3
12,CC1(C(=O)Nc2ccccc2SSc2ccccc2NC(=O)C2(C)CCCCC2)CCCCC1 [Example 6],5
13,CC(C)CCC1(C(=O)Nc2ccccc2SSc2ccccc2NC(=O)C2(CCC(C)C)CCCC2)CCCC1 [Example 7],2
14,"CC(C)(C)C(=O)Nc1ccccc1S [Example 9, N-(2-mercaptophenyl)-2,2-dimethylpropioneamide]",99
15,CC1(C(=O)Nc2ccccc2S)CCCCC1 [Example 12],17
16,CC(C)CCC1(C(=O)Nc2ccccc2S)CCCC1 [Example 13],5
17,CCC1(C(=O)Nc2ccccc2S)CCCCC1 [Example 15],12
18,CCCC1(C(=O)Nc2ccccc2S)CCCCC1 [Example 16],8
19,CCCCC1(C(=O)Nc2ccccc2S)CCCCC1 [Example 17],8
20,"CC(C)CC1(C(=O)Nc2ccccc2S)CCCCC1 [Example 18, N-(2-mercaptophenyl)-1-isobutylcyclohexanecarboxamide]",6
21,"COc1ccc(S)c(NC(=O)C2(C)CCCCC2)c1 [Example 19, N-(2-mercapto-5-methoxyphenyl)-1-methylcyclohexanecarboxamide]",179

row,SMILES,IC50 [µM]
1,CC1(C(=O)Nc2cc(F)ccc2S)CCCCC1 [Example 19-1],19
2,Cc1ccc(S)c(NC(=O)C2(C)CCCCC2)c1 [Example 19-2],33
3,CC1(C(=O)Nc2cc(F)c(F)cc2S)CCCCC1 [Example 19-5],17
4,CC1(C(=O)Nc2ccc(F)cc2S)CCCCC1 [Example 19-6],18
5,CC(C)CCC1(C(=O)Nc2cc(Cl)c(Cl)cc2S)CCCCC1 [Example 20],16
6,CC(C)CCC1(C(=O)Nc2cc(Cl)c(Cl)cc2S)CCCC1 [Example 21],9
7,CC(C)(C)C(=O)Nc1ccccc1SC(=O)C1CCCCC1 [Example 25-4],32
8,CC(C)(C)C(=O)Nc1ccccc1SC(=O)Cc1ccccc1[N+](=O)[O-] [Example 25-7],46
9,CC(C)(C)C(=O)Nc1ccccc1SC(=O)Cc1cccc([N+](=O)[O-])c1 [Example 25-8],25
10,CC(C)(C)C(=O)Nc1ccccc1SC(=O)CCCc1ccccc1 [Example 25-12],33
11,CC(C)(C)C(=O)Nc1ccccc1CC(=O)Sc1ccccc1NC(=O)C(C)(C)C [Example 25-13],28
12,CC(C)(C)C(=O)Nc1ccccc1SC(=O)CCc1ccccc1 [Example 25-14],30
13,CC1(C(=O)Nc2ccccc2SC(=O)CC2CCCCC2)CCCCC1 [Example 25-16],41
14,CC1(C(=O)Nc2ccccc2SC(=O)Cc2ccccc2)CCCCC1 [Example 25-17],23
15,CC(C)(C)C(=O)Nc1ccccc1CC(=O)Sc1ccccc1NC(=O)C1(C)CCCCC1 [Example 25-18],19
16,CC1(C(=O)Nc2ccccc2CC(=O)Sc2ccccc2NC(=O)C2(C)CCCCC2)CCCCC1 [Example 25-19],22
17,CC(C)(C)C(=O)Nc1ccccc1SC(=O)Cc1ccccc1NC(=O)C1(C)CCCCC1 [Example 25-20],48
18,CC1(C(=O)Nc2ccccc2SC(=O)Cc2ccc(Cl)cc2)CCCCC1 [Example 25-21],28
19,CC1(C(=O)Nc2ccccc2SC(=O)Cc2cccc(Cl)c2)CCCCC1 [Example 25-22],27
20,CC1(C(=O)Nc2ccccc2SC(=O)Cc2ccccc2Cl)CCCCC1 [Example 25-23],25
21,CC1(C(=O)Nc2ccccc2SC(=O)Cc2ccc3ccccc3c2)CCCCC1 [Example 25-25],24

row,SMILES,IC50 [µM]
1,CC1(C(=O)Nc2ccccc2SC(=O)Cc2ccc(-c3ccccc3)cc2)CCCCC1 [Example 25-26],22
2,CC1(C(=O)Nc2ccccc2SC(=O)c2cccnc2)CCCCC1 [Example 25-27],21
3,CC1(C(=O)Nc2ccccc2SC(=O)Cc2cccs2)CCCCC1 [Example 25-28],21
4,CC1(C(=O)Nc2cccc(CC(=O)Sc3ccccc3NC(=O)C3(C)CCCCC3)c2)CCCCC1 [Example 25-30],21
5,CC(=O)Nc1cccc(CC(=O)Sc2ccccc2NC(=O)C2(C)CCCCC2)c1 [Example 25-31],21
6,CC(=O)N[C@@H](Cc1ccccc1)C(=O)Sc1ccccc1NC(=O)C1(C)CCCCC1 [Example 25-32],20
7,CC(=O)NCC(=O)Sc1ccccc1NC(=O)C1(C)CCCCC1 [Example 25-33],18
8,CC(C)(C)OC(=O)Nc1ccccc1CC(=O)Sc1ccccc1NC(=O)C1(C)CCCCC1 [Example 25-34],21
9,CC(=O)N[C@@H](CC(C)C)C(=O)Sc1ccccc1NC(=O)C1(C)CCCCC1 [Example 25-35],27
10,CC(=O)N[C@@H](Cc1ccc(O)cc1)C(=O)Sc1ccccc1NC(=O)C1(C)CCCCC1 [Example 25-36],30
11,CC(=O)N1CCC[C@H]1C(=O)Sc1ccccc1NC(=O)C1(C)CCCCC1 [Example 25-37],24
12,CC(=O)N[C@@H](C(=O)Sc1ccccc1NC(=O)C1(C)CCCCC1)c1ccccc1 [Example 25-38],20
13,CC(=O)N[C@H](C(=O)Sc1ccccc1NC(=O)C1(C)CCCCC1)c1ccccc1 [Example 25-39],22
14,CC1(C(=O)Nc2ccccc2SC(=O)[C@H](NC(=O)c2ccccc2)c2ccccc2)CCCCC1 [Example 25-40],23
15,CC1(C(=O)Nc2ccccc2SC(=O)[C@H](NC(=O)C2(C)CCCCC2)c2ccccc2)CCCCC1 [Example 25-41],26
16,CC1(C(=O)Nc2ccccc2SC(=O)[C@H](N)c2ccccc2)CCCCC1 [Example 25-42],22
17,CC(=O)N[C@@H](C)C(=O)Sc1ccccc1NC(=O)C1(CCC(C)C)CCCCC1 [Example 25-44],9
18,CC(C)CCC1(C(=O)Nc2ccccc2SC(=O)C(c2ccccc2)c2ccccc2)CCCCC1 [Example 25-47],29
19,CC(C)CCC1(C(=O)Nc2ccccc2SC(=O)c2ccc(C(=O)Sc3ccccc3NC(=O)C3(CCC(C)C)CCCCC3)cc2)CCCCC1 [Example 25-48],23
